IC50 data for one molecule are collected here from patent US5952390A, “10-substituted 1,8-dihydroxy-9(10H) anthracenone pharmaceuticals” (Teva Pharmaceutical Industries Ltd., priority 1998, dated 1999).

Structures are written as SMILES. pIC50: −log10 of the molar value.

This experiment in a line: Lipid peroxidation in bovine brain phospholipid liposomes. To be noted: Table I (Addendum); n = 3 or more; standard errors average 20%; read-out: LPO IC50. As to the method: Phospholipids were prepared essentially as described by Gutteridge, J. M. C., "The Measurement of Malondialdehyde in Peroxidised Ox-Brain Phospholipid Liposomes", Anal. Biochem., 82, 76-82 (1977). Bovine brain, cooled on ice, was freed from blood vessels and washed repeatedly with 0.15M NaCl, pH 7.4. It was cut to pieces and then macerated with an ultra-turrax, passed through a close-meshed sieve, and extracted four times with four times the volume of acetone. The extraction mixture was filtered by suction to remove the acetone, the residue was dried under vacuum, and then repeatedly extracted with petroleum ether (40-60) using twice the volume of the original brain homogenate. The combined extracts were filtered, dried at 45° C., and dissolved in ether (one fifth of the original brain volume). The mixture was treated with five times the volume of acetone, and the resulting precipitate was collected by suction-filtration, dried and stored under N2 at -20° C. in the dark. Bovine brain phospholipids were weighed into glass tubes and shaken in a vortex mixer (Heidolph) in the presence of five small glass beads (.phi. 4 mm) for 1 min. […]
The following reagents were added to glass tubes in the order and at the final concentrations stated. […] The organic layer was separated by centrifugation at 3000 rpm (15 min) and the absorbance at 532 nm was measured against butanol.

Usually pIC50 stands for −log10 of the IC50, conventionally taken in molar units. Take `CCCC(=O)C1c2cccc(O)c2C(=O)c2c(O)cccc21` [Butantrone, 10-Butyryl-Dithranol]: the pIC50 was 5.40.
